Laboratory results published in patent US20230295087A1, “AGONISTS OF ROR GAMMAt” (BRISTOL-MYERS SQUIBB COMPANY, priority 2019, published 2023).

Each compound was assayed against T1, human RORgT (Homo sapiens, UniProt P51449) (assay: RORgT Gal4 Luciferase Reporter Gene Assay). Conditions: engineered Jurkat cells overexpressing RORgT (LBD or full length) fused with Gal4 Luc reporter; 18 hours at 37° C.; luminescence.
T1 construct: expressed in transfected cells
T1 sequence (P51449 267-516): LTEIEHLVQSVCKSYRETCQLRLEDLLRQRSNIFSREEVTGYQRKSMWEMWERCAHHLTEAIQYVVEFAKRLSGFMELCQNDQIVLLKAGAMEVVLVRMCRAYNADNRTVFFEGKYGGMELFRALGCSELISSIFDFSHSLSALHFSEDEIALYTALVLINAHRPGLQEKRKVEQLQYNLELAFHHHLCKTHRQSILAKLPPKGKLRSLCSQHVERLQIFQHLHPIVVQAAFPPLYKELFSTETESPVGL
Format: cell-based
Procedure: RORgT Gal4 Luciferase Reporter Gene Assay
25 µL of cryopreserved Jurkat cells over expressing ligand binding domain (LBD) of RORgT (aa267-516, NM_005060) and Gal4 Luc, or full length of human RORgT and Gal4 Luc, were plated in 384-well solid white cell culture plates (PerkinElmer 6007899), with a density of 10,000 cells/well in RPMI 1640 cell culture media (Gibco 11875-085). The media contained 0.1% BSA, 10 mM HEPES (Gibco 15360-080), […] Sodium Pyruvate (Gibco 11360-040), […] Hygromycin B (Invitrogen 10687-010), and […] Blasticidin (Invitrogen R210-01).
100 nL of compound at varying concentrations in 3-fold serial dilution, with final concentrations ranging from 40 µM to 0.67 nM, were added to the cells using Labcyte Echo 550. The compound and the cells were incubated for 18 hours at 37° C. in a cell culture incubator. Cells were then lysed with 15 uL of Steady-Glo Luciferase Assay reagent (Promega EZ550), followed by centrifuging the assay plates at 1500 RPM for 1 minute. Subsequently, the plates were read on the Envision (PerkinElmer). The inhibition of constitutive activity of RORgT achieved by graded concentrations of compound was calculated as a percentage of the luminescence signal window reduction over a control compound.
For `O=C(O)[C@H]1CC[C@H](C(=O)N2CC[C@@]3(S(=O)(=O)c4ccc(F)cc4)c4ccc(Oc5c(F)cccc5Cl)cc4CC[C@@H]23)CC1` [Example 37, (1r,4r)-4-[(3aR,9bR)-7-(2-chloro-6-fluorophenoxy)-9b-(4-fluorobenzenesulfonyl)-1H,2H,3H,3aH,4H,5H,9bH-benzo[e]indole-3-carbonyl]cyclohexane-1-carboxylic acid], the EC50 was 3.3 nM. With `O=C(C1CCS(=O)(=O)CC1)N1CC[C@@]2(S(=O)(=O)c3ccc(F)cc3)c3ccc(Oc4c(F)cccc4Cl)cc3CC[C@@H]12` [Example 38, 4-[(3aR,9bR)-7-(2-chloro-6-fluorophenoxy)-9b-(4-fluorobenzenesulfonyl)-1H,2H,3H,3aH,4H,5H,9bH-benzo[e]indole-3-carbonyl]-1λ^6-thiane-1,1-dione] the EC50 was 1.1 nM. `O=C(C1CCS(=O)(=O)CC1)N1CC[C@@]2(S(=O)(=O)c3ccc(F)cc3)c3ccc(Oc4c(F)cccc4C(F)(F)F)cc3CC[C@@H]12` [Example 39, 4-[(3aR,9bR)-7-[2-fluoro-6-(trifluoromethyl)phenoxy]-9b-(4-fluorobenzenesulfonyl)-1H,2H,3H,3aH,4H,5H,9bH-benzo[e]indole-3-carbonyl]-1λ^6-thiane-1,1-dione] was tested, and the EC50 was 2.7 nM. `O=C(O)[C@H]1CC[C@H](C(=O)N2CC[C@@]3(S(=O)(=O)c4ccc(F)cc4)c4ccc(Cc5ccc(F)cc5)cc4CC[C@@H]23)CC1` [Example 40, (1r,4r)-4-[(3aR,9bR)-9b-(4-fluorobenzenesulfonyl)-7-[(4-fluorophenyl)methyl]-1H,2H,3H,3aH,4H,5H,9bH-benzo[e]indole-3-carbonyl]cyclohexane-1-carboxylic acid] gave an EC50 of 5.2 nM. With `O=C(C1CCS(=O)(=O)CC1)N1CC[C@@]2(S(=O)(=O)c3ccc(F)cc3)c3ccc(Cc4ccc(F)cc4)cc3CC[C@@H]12` [Example 41, 4-[(3aR,9bR)-9b-(4-fluorobenzenesulfonyl)-7-[(4-fluorophenyl)methyl]-1H,2H,3H,3aH,4H,5H,9bH-benzo[e]indole-3-carbonyl]-1λ^6-thiane-1,1-dione] the EC50 was 1.2 nM. `O=C(C1CCS(=O)(=O)CC1)N1CC[C@@]2(S(=O)(=O)c3ccc(F)cc3)c3ccc(Cc4ccc(Cl)cc4)cc3CC[C@@H]12` [Example 42, 4-[(3aR,9bR)-7-[(4-chlorophenyl)methyl]-9b-(4-fluorobenzenesulfonyl)-1H,2H,3H,3aH,4H,5H,9bH-benzo[e]indole-3-carbonyl]-1λ^6-thiane-1,1-dione] showed an EC50 of 1.8 nM. For `Cc1ccccc1Cc1ccc2c(c1)CC[C@H]1N(C(=O)[C@H]3CC[C@H](C(=O)O)CC3)CC[C@@]21S(=O)(=O)c1ccc(F)cc1` [Example 43, (1r,4r)-4-[(3aR,9bR)-9b-(4-fluorobenzenesulfonyl)-7-[(2-methylphenyl)methyl]-1H,2H,3H,3aH,4H,5H,9bH-benzo[e]indole-3-carbonyl]cyclohexane-1-carboxylic acid], the EC50 was 2.7 nM. `Cc1ccccc1Cc1ccc2c(c1)CC[C@H]1N(C(=O)C3CCS(=O)(=O)CC3)CC[C@@]21S(=O)(=O)c1ccc(F)cc1` [Example 44, 4-[(3aR,9bR)-9b-(4-fluorobenzenesulfonyl)-7-[(2-methylphenyl)methyl]-1H,2H,3H,3aH,4H,5H,9bH-benzo[e]indole-3-carbonyl]-1λ^6-thiane-1,1-dione] was tested, and the EC50 was 1.9 nM. With `CC1(CN2CC[C@@]3(S(=O)(=O)c4ccc(F)cc4)c4ccc(OCc5c(F)cccc5C(F)(F)F)cc4CC[C@@H]23)CCNCC1` [Example 45, 4-{ [(3aR,9bR)-7-{ [2-fluoro-6-(trifluoromethyl)phenyl]methoxy} -9b-(4-fluorobenzenesulfonyl)-1H,2H,3H,3aH,4H,5H,9bH-benzo[e]indol-3-yl]methyl}-4-methylpiperidine] the EC50 was 306 nM. In the case of `Cc1ccccc1Cc1ccc2c(c1)CC[C@H]1N(C(=O)C3(C)CCS(=O)(=O)CC3)CC[C@@]21S(=O)(=O)c1ccc(F)cc1` [Example 46, 4-[(3aR,9bR)-9b-(4-fluorobenzenesulfonyl)-7-[(2-methylphenyl)methyl]-1H,2H,3H,3aH,4H,5H,9bH-benzo[e]indole-3-carbonyl]-4-methyl-1λ^6-thiane-1,1-dione], the EC50 is reported as 2.7 nM. `Cc1ccccc1Cc1ccc2c(c1)CC[C@H]1N(C(=O)CC3CCS(=O)(=O)C3)CC[C@@]21S(=O)(=O)c1ccc(F)cc1` (stereo partly drawn) [Example 47, 3-{2-[(3aR,9bR)-9b-(4-fluorobenzenesulfonyl)-7-[(2-methylphenyl)methyl]-1H,2H,3H,3aH,4H,5H,9bH-benzo[e]indol-3-yl]-2-oxoethyl}-1λ^6-thiolane-1,1-dione] was tested, and the EC50 was 4.4 nM. Work on `Cc1ccccc1Oc1ccc2c(c1)CC[C@H]1N(C(=O)C3(C)CCS(=O)(=O)CC3)CC[C@@]21S(=O)(=O)c1ccc(F)cc1` [Example 48, 4-[(3aR,9bR)-9b-(4-fluorobenzenesulfonyl)-7-(2-methylphenoxy)-1H,2H,3H,3aH,4H,5H,9bH-benzo[e]indole-3-carbonyl]-4-methyl-1λ^6-thiane-1,1-dione] yielded an EC50 of 7.5 nM. With `Cc1ccccc1Oc1ccc2c(c1)CC[C@H]1N(C(=O)C3CCS(=O)(=O)CC3)CC[C@@]21S(=O)(=O)c1ccc(F)cc1` [Example 49, 4-[(3aR,9bR)-9b-(4-fluorobenzenesulfonyl)-7-(2-methylphenoxy)-1H,2H,3H,3aH,4H,5H,9bH-benzo[e]indole-3-carbonyl]-1λ^6-thiane-1,1-dione] the EC50 was 1.8 nM. `Cc1ccccc1Oc1ccc2c(c1)CC[C@H]1N(C(=O)[C@]3(C)CC[C@@H](C(=O)O)CC3)CC[C@@]21S(=O)(=O)c1ccc(F)cc1` [Example 50, (1r,4r)-4-[(3aR,9bR)-9b-(4-fluorobenzenesulfonyl)-7-(2-methylphenoxy)-1H,2H,3H,3aH,4H,5H,9bH-benzo[e]indole-3-carbonyl]-4-methylcyclohexane-1-carboxylic acid] gave an EC50 of 6.8 nM. With `CC(=O)N1CCC(CN2CC[C@@]3(S(=O)(=O)c4ccc(F)cc4)c4ccc(OCc5c(F)cccc5C(F)(F)F)cc4CC[C@@H]23)CC1` [Example 51, 1-(4-{[(3aR,9bR)-7-{[2-fluoro-6-(trifluoromethyl)phenyl]methoxy} -9b-(4-fluorobenzenesulfonyl)-1H,2H,3H,3aH,4H,5H,9bH-benzo[e]indol-3-yl]methyl}piperidin-1-yl)ethan-1-one] the EC50 was 32 nM. `CC(=O)N1CCC(C)(CN2CC[C@@]3(S(=O)(=O)c4ccc(F)cc4)c4ccc(OCc5c(F)cccc5C(F)(F)F)cc4CC[C@@H]23)CC1` [Example 52, 1-(4-{[(3aR,9bR)-7-{[2-fluoro-6-(trifluoromethyl)phenyl]methoxy} -9b-(4-fluorobenzenesulfonyl)-1H,2H3H,3aH,4H,5H,9bH-benzo[e]indol-3-yl]methyl}-4-methylpiperidin-1-yl)ethan-1-one] showed an EC50 of 24 nM. Compound `CC(C)(C)OC(=O)N1CC[C@@]2(S(=O)(=O)c3ccc(F)cc3)c3ccc(Cc4ccccc4)cc3CC[C@@H]12` [Example 53, ert-butyl (3aR,9bR)-7-benzyl-9b-(4-fluorobenzenesulfonyl)-1H,2H,3H,3aH,4H,5H,9bH-benzo[e]indole-3-carboxylate] has an EC50 of 16 nM. `O=C(O)[C@H]1CC[C@H](C(=O)N2CC[C@@]3(S(=O)(=O)c4ccccc4)c4ccc(OCc5ccccc5)cc4CC[C@@H]23)CC1` [Example 54, (1r,4r)-4-[(3aR,9bR)-9b-(benzenesulfonyl)-7-(benzyloxy)-1H,2H,3H,3aH,4H,5H,9bH-benzo[e]indole-3-carbonyl]cyclohexane-1-carboxylic acid] was tested, and the EC50 was 290 nM. Compound `CN1CCC(C(=O)N2CC[C@@]3(S(=O)(=O)c4ccccc4)c4ccc(OCc5c(Cl)cccc5Cl)cc4CC[C@@H]23)CC1=O` (stereo partly drawn) [Example 55, 4-[(3aR,9bR)-9b-(benzenesulfonyl)-7-[(2,6-dichlorophenyl)methoxy]-1H,2H,3H,3aH,4H,5H,9bH-benzo[e]indole-3-carbonyl]-1-methylpiperidin-2-one] has an EC50 of 83 nM. With `O=C(CC1CCS(=O)(=O)CC1)N1CC[C@@]2(S(=O)(=O)c3ccccc3)c3ccc(OCc4c(Cl)cccc4Cl)cc3CC[C@@H]12` [Example 56, 4-{2-[(3aR,9bR)-9b-(benzenesulfonyl)-7-[(2,6-dichlorophenyl)methoxy]-1H,2H,3H,3aH,4H,5H,9bH-benzo[e]indol-3-yl]-2-oxoethyl}-1λ^6-thiane-1,1-dione] the EC50 was 66 nM. Compound `CC(=O)N1CCC(C(=O)N2CC[C@@]3(S(=O)(=O)c4ccccc4)c4ccc(OCc5c(Cl)cccc5Cl)cc4CC[C@@H]23)CC1` [Example 57, 1-{4-[(3aR,9bR)-9b-(benzenesulfonyl)-7-[(2,6-dichlorophenyl)methoxy]-1H,2H,3H,3aH,4H,5H,9bH-benzo[e]indole-3-carbonyl]piperidin-1-yl}ethan-1-one] has an EC50 of 13 nM. `CS(=O)(=O)NCC(=O)N1CC[C@@]2(S(=O)(=O)c3ccccc3)c3ccc(OCc4c(Cl)cccc4Cl)cc3CC[C@@H]12` [Example 58, N-{2-[(3aR,9bR)-9b-(benzenesulfonyl)-7-[(2,6-dichlorophenyl)methoxy]-1H,2H,3H,3aH,4H,5H,9bH-benzo[e]indol-3-yl]-2-oxoethyl} methanesulfonamide] showed an EC50 of 587 nM.
